Assay results reported in publication PMC7802075 (ACS Infectious Diseases, 2020).

The compounds below were run against T1, LmjIPCS (inositol phosphorylceramide synthase from L. major) (Leishmania major, UniProt E9AFX2) (assay: biochemical). Settings: not given.
T1 sequence (E9AFX2 1-338): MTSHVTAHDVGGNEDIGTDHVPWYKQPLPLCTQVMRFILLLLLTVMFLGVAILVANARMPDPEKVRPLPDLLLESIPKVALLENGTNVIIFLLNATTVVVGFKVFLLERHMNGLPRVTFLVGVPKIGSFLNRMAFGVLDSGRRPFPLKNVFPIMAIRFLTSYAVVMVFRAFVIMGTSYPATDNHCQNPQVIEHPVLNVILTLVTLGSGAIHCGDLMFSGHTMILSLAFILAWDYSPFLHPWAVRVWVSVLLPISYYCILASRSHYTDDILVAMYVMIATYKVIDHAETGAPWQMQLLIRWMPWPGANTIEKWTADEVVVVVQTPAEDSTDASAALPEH
Type: biochemical
Parameters: inhibition: dose or concentration left out as unconfirmed

Compound | 20mM inhibition LmjIPCS
MERBROMIN | -21%
O=C(O)c1cc2cc(F)ccc2[nH]1 [5-FLUOROINDOLE-2-CARBOXYLIC ACID] | 51%
Cc1oncc1C(=O)Nc1ccc(C(F)(F)F)cc1 [LEFUNOMIDE] | 10%
CCCNC(C)C(=O)Nc1ccccc1C (centres unmarked) [PRILOCAINE] | 34%
O=C1c2ccccc2C(=O)c2c(O)c(O)cc(O)c21 [PURPURIN] | 35%
COC(=O)[C@]1(C)CC[C@]2(C)CC[C@]3(C)C4=CC=C5C(=CC(=O)C(O)=C5C)[C@]4(C)CC[C@@]3(C)[C@@H]2C1 [PRISTIMERIN] | 62%
Cc1ccc(/N=C/N(C)/C=N/c2ccc(C)cc2C)c(C)c1 [AMITRAZ] | 55%

Same assay, conditions: NINDS set screen, compound at 20mM (so in the source)

20mM inhibition LmjIPCS | Compound
12% | Cc1cc(C(C)(C)CC(C)(C)C)ccc1OCCOCC[N+](C)(C)Cc1ccccc1.[Cl-] [METHYLBENZETHONIUM CHLORIDE]

Same assay, conditions: NINDS set screen, single concentration printed as 20mM

20mM inhibition LmjIPCS | Compound
65% | N=C(N)NC(=O)c1nc(Cl)c(N2CCCCCC2)nc1N [N,N-HEXAMETHYLENEAMILORIDE]

Same assay, conditions: read-out: 20mM inhibition LmjIPCS

Compound | inhibition at 20000 µM
C/C=C(/C)C(=O)O[C@H]1CC[C@@]2(C)[C@@H]3CC[C@H]4[C@]5(O)C[C@H](O)[C@@]6(O)[C@@H](CN7C[C@@H](C)CC[C@H]7[C@@]6(C)O)[C@]5(O)C[C@@]42O[C@]13O [CEVADINE] | 10%
CO[C@H]1C[C@H](O[C@H]2[C@H](C)[C@@H](O[C@@H]3O[C@H](C)C[C@H](N(C)C)[C@H]3O)[C@@H](C)C[C@@]3(CO3)C(=O)[C@H](C)[C@@H](O)[C@@H](C)[C@@H](C)OC(=O)[C@@H]2C)O[C@@H](C)[C@@H]1O [OLEANDOMYCIN] | 1.17%
NC(=O)NC1NC(=O)NC1=O (centres unmarked) [ALLANTOIN] | 18%
CCC[C@H](N[C@@H](C)C(=O)N1[C@H](C(=O)O)C[C@@H]2CCCC[C@@H]21)C(=O)OCC [PERINDOPRIL] | 2%
CCC(N)C(O)c1ccc(O)c(O)c1 (centres unmarked) [ETHYLNOREPINEPHRINE] | -9%
Oc1ccc(Cl)cc1 [PARACHLOROPHENOL] | 12%
Nc1ccc(S(N)(=O)=O)cc1 [SULFANILAMIDE] | -1.19%
CC(=O)Nc1ccccc1 [ACETANILIDE] | 3.75%
COc1ccc(C(=O)O[C@H]2CC[C@@]3(C)[C@@H]4CC[C@H]5[C@]6(O)C[C@H](O)[C@@]7(O)[C@@H](CN8C[C@@H](C)CC[C@H]8[C@@]7(C)O)[C@]6(O)C[C@@]53O[C@]24O)cc1OC [VERATRIDINE] | 11%

Same assay, conditions: read-out: inhibition LmjIPCS

inhibition | Compound
4.66% | O=c1[nH]cc(F)c(=O)[nH]1 [FLUOROURACIL]
28% | COC1=CC(=O)C[C@@H](C)[C@]12Oc1c(Cl)c(OC)cc(OC)c1C2=O [GRISEOFULVIN]
7% | C[C@]12CCC(=O)C=C1C=C[C@@H]1[C@@H]2CC[C@@]2(C)[C@H]1CC[C@@]2(O)CCC(=O)O [CANRENOIC ACID]

Same assay, conditions: screening of NINDS set, sheet Screen 1; read-out: inhibition LmjIPCS

inhibition | Compound
9% | O=C(O)c1cc2cc(Cl)ccc2[nH]1 [5-CHLOROINDOLE-2-CARBOXYLIC ACID]
8% | CC1CC(OC(=O)C(O)c2ccccc2)CC(C)(C)N1C (centres unmarked) [EUCATROPINE]

Each compound was assayed on L. major (FV1) promastigotes (assay: Antipromastigote resazurin assay, L. major (FV1) wild type). Settings: not given.
Type: cell-based, Leishmania major

Compound | 10mM inhibition L. major | ED50 vs L. major
CCN(CC)CCOc1ccc(C(=C(Cl)c2ccccc2)c2ccccc2)cc1 [clomiphene 4, clomiphene, reference compound] | 65% | 6.57 mM
Fc1ccc(C(c2ccc(F)cc2)N2CCN(C/C=C/c3ccccc3)CC2)cc1 [flunarizine 7, flunarizine, reference compound] | 56% | 1.73 mM
Clc1ccc(COC(Cn2ccnc2)c2ccc(Cl)cc2Cl)c(Cl)c1 (centres unmarked) [MICONAZOLE] | <5% | 
CN1CCN(CCCN2c3ccccc3Sc3ccc(Cl)cc32)CC1 [prochlorperazine edisylate 11, prochlorperazine edisylate, reference compound] | 11% | 12.90 mM
CC(C)NC[C@@H](O)COc1cccc2ccccc12 [DEXPROPRANOLOL] | <5% | 

Same assay, conditions: NINDS set screen against L. major promastigotes, single concentration printed as 10mM

Compound | 10mM inhibition L. major
CN(C)CCCN1c2ccccc2CCc2ccccc21 [IMIPRAMINE] | <5%
